Like-named read-outs stand apart in the source and are kept apart here.
Test system: MDA-MB-231 cells
Experiment: cells
Assay type: cell-based
Settings: Homo sapiens, MDA-MB-231, 48 h
Experimental: Here, 250 μl of MDA-MB-231 cells in culture medium at cell density of 5.2×10^3 cells/ml was seeded onto the gels (0.2, 0.5, 1.0, 2.5 and 4.0 kPa). The culture medium was changed every 3 days. […] Then, the cells were washed with PBS and the fluorescence intensity was measured using the AlamarBlue cell viability assay as described above. Cell viability in the presence of anti-cancer drugs was normalized to the untreated control groups (0 μM).

SMILES: COc1cccc2c1C(=O)c1c(O)c3c(c(O)c1C2=O)C[C@@](O)(C(=O)CO)C[C@@H]3O[C@H]1C[C@H](N)[C@H](O)[C@H](C)O1 [doxorubicin]
- viability at 100 µM (read-out: cell viability, 100 μM doxorubicin, 48 hours, 0.2 and 0.5 kPa gels): ~80%
- viability at 100 µM (read-out: cell viability, 100 μM doxorubicin, 48 hours, HA-Tyr gels 2.5 and 4.0 kPa): ~20%
- viability at 100 µM (read-out: cell viability, 100 μM doxorubicin, 48 hours, cell culture plate): ~10%
